Assay results from US20250017935A1, “7,8-DIHYDRO-5H-1,6-NAPHTHYRIDINE DERIVATIVES AS POSITIVE ALLOSTERIC MODULATORS OF THE MUSCARINIC ACETYLCHOLINE RECEPTOR M4 FOR TREATING NEUROLOGICAL AND PSYCHIATRIC DISORDERS” (Vanderbilt University, priority 2021, published 2025).

Molecular target: T1, Human M4 (Homo sapiens, UniProt P08173)
T1 construct: expressed in transfected cells; host or cells: CHO-K1 (ATCC), stably expressing hM4 and Gqi5
T1 sequence (P08173 1-479): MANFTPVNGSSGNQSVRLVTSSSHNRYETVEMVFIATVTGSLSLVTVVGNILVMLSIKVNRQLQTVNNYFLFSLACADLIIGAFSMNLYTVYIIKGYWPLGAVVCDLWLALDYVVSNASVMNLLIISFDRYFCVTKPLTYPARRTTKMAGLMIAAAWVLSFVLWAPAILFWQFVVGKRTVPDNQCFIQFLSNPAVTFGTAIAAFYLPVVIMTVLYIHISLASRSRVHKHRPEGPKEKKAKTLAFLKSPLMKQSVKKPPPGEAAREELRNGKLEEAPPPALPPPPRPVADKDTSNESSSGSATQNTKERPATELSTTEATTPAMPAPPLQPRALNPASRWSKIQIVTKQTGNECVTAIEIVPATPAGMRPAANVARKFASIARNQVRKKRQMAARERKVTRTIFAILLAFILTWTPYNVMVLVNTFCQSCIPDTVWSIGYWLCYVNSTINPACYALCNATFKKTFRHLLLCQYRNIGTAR
Assay: mAChR M4 cell-based functional assay (calcium flux, potentiation of EC20 acetylcholine response) in hM4-Gqi5 CHO-K1 cells
Details: for Emax at 30 µM: % ACh maximum at 30 μM, human M4 CHO-K1 cells; for EC50: CHO-K1 cells transfected with human M4 and Gqi5, positive allosteric modulator activity, EC20 acetylcholine
Experimental: Human M4 cDNA, along with the chimeric G protein Gqi5, were transfected into Chinese hamster ovary (CHO-K1) cells purchased from the American Type Culture Collection using commercially available Lipofectamine 2000 transfection reagent (Dalby, B. et al., Methods (2004) 33(2), 95-103). hM4-Gqi5 cells were grown in Ham's F-12 medium containing 10% heat-inactivated fetal bovine serum (FBS), 20 mM HEPES, 50 μg/mL G418 sulfate (CAS #108321-42-2), and 500 μg/mL Hygromycin B. rM4-Gqi5 cells were grown in DMEM containing 10% heat-inactivated FBS, 20 mM HEPES, 400 μg/mL G418 sulfate, and 500 μg/mL Hygromycin B.
For high throughput measurement of agonist-evoked increases in intracellular calcium, CHO-K1 cells stably expressing muscarinic receptors were plated in growth medium lacking G418 sulfate and hygromycin at 15,000 cells/20 μL/well in Greiner 384-well black-walled, tissue culture (TC)-treated, clear-bottom plates (VWR). Cells were incubated overnight at 37° C. and 5% CO2. The next day, cells were washed using an ELX 405 (BioTek) with assay buffer; the final volume was then aspirated to 20 μL. Next, 20 μL of a 2.3 μM stock of Fluo-4/acetoxymethyl ester (Invitrogen, Carlsbad, CA), prepared as a 2.3 mM stock in DMSO and mixed in a 1:1 ratio with 10% (w/v) Pluronic F-127 and diluted in assay buffer, was added to the wells and the cell plates were incubated for 50 minutes at 37° C. and 5% CO2. Dye was removed by washing with the ELX 405 and the final volume was aspirated to 20 μL. Compound master plates were formatted in an 11 point concentration-response curve (CRC) format (1:3 dilutions) in 100% DMSO with a starting concentration of 10 mM using a BRAVO liquid handler (Agilent). Test compound CRCs were then transferred to daughter plates (240 nL) using the Echo acoustic plate reformatter (Labcyte, Sunnyvale, CA) and then diluted into assay buffer (40 μL) to a 2× stock using a Thermo Fisher Combi (Thermo Fisher Scientific, Waltham, MA).
Calcium flux was measured using the Functional Drug Screening System (FDSS) 6000 or 7000 (Hamamatsu Corporation, Tokyo, Japan) as an increase in the fluorescent static ratio. Compounds were applied to cells (20 μL, 2×) using the automated system of the FDSS at 2-4 seconds into the protocol and the data were collected at 1 Hz. […] Agonist activity was analyzed as a concentration-dependent increase in calcium mobilization upon compound addition. Positive allosteric modulator activity was analyzed as a concentration-dependent increase in the EC20 acetylcholine response. With the acetylcholine EC20 set as baseline, the test compound EC50 is determined as the concentration that produces an increase above baseline of 50% of the maximum increase in acetylcholine response elicted by the test compound. Antagonist activity was analyzed as a concentration-dependent decrease in the EC80 acetylcholine response. Concentration-response curves were generated using a four-parameter logistical equation in XLFit curve fitting software (IDBS, Bridgewater, NJ) for Excel (Microsoft, Redmond, WA) or Prism (GraphPad Software, Inc., San Diego, CA).
Compounds were synthesized as described above. Activity (EC50 and Emax) was determined in the mAChR M4 cell-based functional assay as described above and the data are shown in Table 5. The compound numbers correspond to the compound numbers used in Examples 1-13 and Tables 1, 2, and 3.

| SMILES | Emax at 30 µM | EC50 |
| --- | --- | --- |
| Cc1coc2ncnc(N3CCc4ncc(-c5cnn(C6CC6)c5)cc4C3)c12 [Compound 38, 4-[3-(1-cyclopropylpyrazol-4-yl)-7,8-dihydro-5H-1,6-naphthyridin-6-yl]-5-methyl-furo[2,3-d]pyrimidine] | 83% | 60 nM |
| Cc1coc2ncnc(N3CCc4ncc(Nc5cccnc5F)cc4C3)c12 [Compound 39, N-(2-fluoro-3-pyridyl)-6-(5-methylfuro[2,3-d]pyrimidin-4-yl)-7,8-dihydro-5H-1,6-naphthyridin-3-amine] | 94% | 80 nM |
| Cc1noc2ncnc(N3CCc4ncc(C(F)(F)F)cc4C3)c12 [Compound 40, 3-methyl-4-[3-(trifluoromethyl)-7,8-dihydro-5H-1,6-naphthyridin-6-yl]isoxazolo[5,4-d]pyrimidine] | 94% | 710 nM |
| Cc1coc2ncnc(N3CCc4ncc(C(F)(F)F)cc4C3)c12 [Compound 41, 5-methyl-4-[3-(trifluoromethyl)-7,8-dihydro-5H-1,6-naphthyridin-6-yl]furo[2,3-d]pyrimidine] | 86% | 50 nM |
| Cc1coc2ncnc(N3CCc4ncc(N5CCCn6nccc65)cc4C3)c12 [Compound 42, 4-[3-(6,7-dihydro-5H-pyrazolo[1,5-a]pyrimidin-4-yl)-7,8-dihydro-5H-1,6-naphthyridin-6-yl]-5-methyl-furo[2,3-d]pyrimidine] | 99% | 10 nM |
| Cc1nn(C)cc1-c1cnc2c(c1)CN(c1ncnc3onc(C)c13)CC2 [Compound 43, 4-[3-(1,3-dimethylpyrazol-4-yl)-7,8-dihydro-5H-1,6-naphthyridin-6-yl]-3-methyl-isoxazolo[5,4-d]pyrimidine] | 80% | 590 nM |
| Cc1nn(C)cc1-c1cnc2c(c1)CN(c1ncnc3occ(C)c13)CC2 [Compound 44, 4-[3-(1,3-dimethylpyrazol-4-yl)-7,8-dihydro-5H-1,6-naphthyridin-6-yl]-5-methyl-furo[2,3-d]pyrimidine] | 95% | 120 nM |
| Cc1noc2ncnc(N3CCc4ncc(N5CCCn6nccc65)cc4C3)c12 [Compound 45, 4-[3-(6,7-dihydro-5H-pyrazolo[1,5-a]pyrimidin-4-yl)-7,8-dihydro-5H-1,6-naphthyridin-6-yl]-3-methyl-isoxazolo[5,4-d]pyrimidine] | 93% | 90 nM |
| Cc1noc2ncnc(N3CCc4ncc(-c5cnn(C6CC6)c5)cc4C3)c12 [Compound 46, 4-[3-(1-cyclopropylpyrazol-4-yl)-7,8-dihydro-5H-1,6-naphthyridin-6-yl]-3-methyl-isoxazolo[5,4-d]pyrimidine] | 75% | 370 nM |
| Cc1coc2ncnc(N3CCc4ncc(N5CCOc6ncccc65)cc4C3)c12 [Compound 47, 1-[6-(5-methylfuro[2,3-d]pyrimidin-4-yl)-7,8-dihydro-5H-1,6-naphthyridin-3-yl]-2,3-dihydropyrido[2,3-b][1,4]oxazine] | 125% | 50 nM |
| Cc1ccc(-c2cnc3c(c2)CN(c2ncnc4occ(C)c24)CC3)cn1 [Compound 48, 5-methyl-4-[3-(6-methyl-3-pyridyl)-7,8-dihydro-5H-1,6-naphthyridin-6-yl]furo[2,3-d]pyrimidine] | 102% | 90 nM |
| Cc1ncc(-c2cnc3c(c2)CN(c2ncnc4occ(C)c24)CC3)s1 [Compound 49, 5-methyl-4-[3-(2-methylthiazol-5-yl)-7,8-dihydro-5H-1,6-naphthyridin-6-yl]furo[2,3-d]pyrimidine] | 68% | 130 nM |
| Cc1noc2ncnc(N3CCc4ncc(N5CCOc6ncccc65)cc4C3)c12 [Compound 50, 1-[6-(3-methylisoxazolo[5,4-d]pyrimidin-4-yl)-7,8-dihydro-5H-1,6-naphthyridin-3-yl]-2,3-dihydropyrido[2,3-b][1,4]oxazine] | 100% | 240 nM |
| Cc1ccc(-c2cnc3c(c2)CN(c2ncnc4onc(C)c24)CC3)cn1 [Compound 51, 3-methyl-4-[3-(6-methyl-3-pyridyl)-7,8-dihydro-5H-1,6-naphthyridin-6-yl]isoxazolo[5,4-d]pyrimidine] | 89% | 510 nM |
| Cc1ncc(-c2cnc3c(c2)CN(c2ncnc4onc(C)c24)CC3)s1 [Compound 52, 3-methyl-4-[3-(2-methylthiazol-5-yl)-7,8-dihydro-5H-1,6-naphthyridin-6-yl]isoxazolo[5,4-d]pyrimidine] | 92% | 550 nM |
| Cc1coc2ncnc(N3CCc4ncc(Cc5ccccc5F)cc4C3)c12 [Compound 53, 4-[3-[(2-fluorophenyl)methyl]-7,8-dihydro-5H-1,6-naphthyridin-6-yl]-5-methyl-furo[2,3-d]pyrimidine] | 81% | 280 nM |
| Cc1coc2ncnc(N3CCc4ncc(Cc5cccc(F)c5)cc4C3)c12 [Compound 54, 4-[3-[(3-fluorophenyl)methyl]-7,8-dihydro-5H-1,6-naphthyridin-6-yl]-5-methyl-furo[2,3-d]pyrimidine] | 78% | 500 nM |
| Cc1coc2ncnc(N3CCc4ncc(Nc5ccnn5C)cc4C3)c12 [Compound 55, 6-(5-methylfuro[2,3-d]pyrimidin-4-yl)-N-(2-methylpyrazol-3-yl)-7,8-dihydro-5H-1,6-naphthyridin-3-amine] | 94% | 60 nM |
| Cc1coc2ncnc(N3CCc4ncc(-c5ccnn5C)cc4C3)c12 [Compound 56, 5-methyl-4-[3-(2-methylpyrazol-3-yl)-7,8-dihydro-5H-1,6-naphthyridin-6-yl]furo[2,3-d]pyrimidine] | 74% | 80 nM |
| FC(F)(F)c1cnc2c(c1)CN(c1nc(Cl)nc3c1CCC3)CC2 [Compound 57, 6-(2-chloro-6,7-dihydro-5H-cyclopenta[d]pyrimidin-4-yl)-3-(trifluoromethyl)-7,8-dihydro-5H-1,6-naphthyridine] | 69% | 100 nM |
| FC(F)(F)c1cnc2c(c1)CN(c1nc(C3CC3)nc3c1CCC3)CC2 [Compound 58, 6-(2-cyclopropyl-6,7-dihydro-5H-cyclopenta[d]pyrimidin-4-yl)-3-(trifluoromethyl)-7,8-dihydro-5H-1,6-naphthyridine] | 88% | 1480 nM |
| Cc1nc2c(c(N3CCc4ncc(C(F)(F)F)cc4C3)n1)CCC2 [Compound 59, 6-(2-methyl-6,7-dihydro-5H-cyclopenta[d]pyrimidin-4-yl)-3-(trifluoromethyl)-7,8-dihydro-5H-1,6-naphthyridine] | 87% | 1030 nM |
| Cn1ncc2ncnc(N3CCc4ncc(C(F)(F)F)cc4C3)c21 [Compound 60, 6-(1-methylpyrazolo[4,3-d]pyrimidin-7-yl)-3-(trifluoromethyl)-7,8-dihydro-5H-1,6-naphthyridine] | 31% | 6060 nM |
